{
  "source": "ChEMBL document CHEMBL4840324",
  "about": "“Bioassay-Guided Isolation of an Abetiane-Type Diterpenoid from Prunella vulgaris That Protects against Concanavalin A-Induced Autoimmune Hepatitis” (J Nat Prod, 2021)",
  "key": {"[1]": {"system": "Splenocyte", "assay": "Inhibition of ConA-stimulated TNFalpha production in C57BL/6J mouse splenocytes at 0.156 to 1.25 uM", "type": "functional, cell-based", "details": "dose 0.156-1.25 µM"}, "[2]": {"assay": "Immunosuppressive activity in human PBMCs assessed as inhibition of anti-CD3/anti-CD28 induced T-cell proliferation at 1.25 uM for 72 hrs by CellTrace Violet staining based flow cytometric analysis (reference value: 63.3 %)", "type": "functional, PBMC", "parameters": "scale not given: the % may be the effect or the level left"}, "[3]": {"system": "Splenocyte", "assay": "Immunosuppressive activity in C57BL/6J mouse splenocytes assessed as inhibition of anti-CD3/anti-CD28 induced T-cell proliferation at 0.625 uM for 72 hrs by CellTrace Violet staining based flow cytometric analysis (reference value: 78.4 %)", "type": "functional", "parameters": "scale not given: the % may be the effect or the level left"}, "[4]": {"system": "Splenocyte", "assay": "Immunosuppressive activity against anti-CD3/anti-CD28 stimulated C57BL/6J mouse splenocytes assessed as reduction of TNFalpha secretion at 0.625 to 2.5 uM", "type": "functional, cell-based", "details": "dose 0.625-2.5 µM"}, "[5]": {"system": "Splenocyte", "assay": "Immunosuppressive activity against anti-CD3/anti-CD28 stimulated C57BL/6J mouse splenocytes assessed as reduction of IL-10 secretion at 0.625 to 2.5 uM", "type": "functional, cell-based", "details": "dose 0.625-2.5 µM"}, "[6]": {"assay": "Immunosuppressive activity in human PBMCs assessed as inhibition of anti-CD3/anti-CD28 induced T-cell proliferation at 0.625 uM for 72 hrs by CellTrace Violet staining based flow cytometric analysis (reference value: 63.3 %)", "type": "functional, PBMC", "parameters": "scale not given: the % may be the effect or the level left"}, "[7]": {"system": "PBMC", "assay": "Immunosuppressive activity against anti-CD3/anti-CD28 stimulated human PBMCs assessed as reduction of TNFalpha secretion at 0.625 to 2.5 uM", "type": "functional, tissue-based", "details": "dose 0.625-2.5 µM"}, "[8]": {"assay": "Hepatotoxicity in C57BL/6J mouse at 10 mg/kg, ip administered for 3 days by hematoxylin and eosin staining based immunohistochemical analysis", "type": "toxicity, organism-based", "details": "in vivo, 72 h, time 3 day"}, "[9]": {"system": "Splenocyte", "assay": "Inhibition of ConA-stimulated IFNgamma production in C57BL/6J mouse splenocytes at 0.156 to 1.25 uM", "type": "functional, cell-based", "details": "dose 0.156-1.25 µM"}, "[10]": {"system": "Splenocyte", "assay": "Immunosuppressive activity in C57BL/6J mouse splenocytes assessed as inhibition of ConA-induced splenocytes proliferation at 0.156 uM measured after 72 hrs by CellTrace Violet staining based flow cytometric analysis (reference value: 63.9 %)", "type": "functional", "parameters": "scale not given: the % may be the effect or the level left"}, "[11]": {"system": "Mus musculus", "assay": "Hepatoprotective activity against ConA-induced hepatitis in C57BL/6J mouse assessed as suppression of ALT level at 10 mg/kg, ip administered for 3 days by automatic analyzer", "type": "functional, organism-based", "details": "time 3.0 day"}, "[12]": {"system": "Mus musculus", "assay": "Hepatoprotective activity against ConA-induced hepatitis in C57BL/6J mouse assessed as effect on cleaved caspase 3 expression at 10 mg/kg, ip administered for 2 days by TUNEL staining based assay", "type": "functional, organism-based", "details": "time 2.0 day"}, "[13]": {"system": "Mus musculus", "assay": "Hepatoprotective activity against ConA-induced hepatitis in C57BL/6J mouse assessed as suppression of LDH level at 10 mg/kg, ip administered for 3 days by automatic analyzer", "type": "functional, organism-based", "details": "time 3.0 day"}, "[14]": {"system": "Mus musculus", "assay": "Hepatoprotective activity against ConA-induced hepatitis in C57BL/6J mouse assessed as suppression of CD3+ T cells infiltration expression at 10 mg/kg, ip administered for 2 days by TUNEL staining based assay", "type": "functional, organism-based", "details": "time 2.0 day"}, "[15]": {"system": "Mus musculus", "assay": "Hepatoprotective activity against ConA-induced hepatitis in C57BL/6J mouse assessed as suppression of AST level at 10 mg/kg, ip administered for 3 days by automatic analyzer", "type": "functional, organism-based", "details": "time 3.0 day"}, "[16]": {"system": "Splenocyte", "assay": "Immunosuppressive activity in C57BL/6J mouse splenocytes assessed as inhibition of ConA-induced splenocytes proliferation at 1.25 uM measured after 72 hrs by CellTrace Violet staining based flow cytometric analysis (reference value: 63.9 %)", "type": "functional", "parameters": "scale not given: the % may be the effect or the level left"}, "[17]": {"system": "PBMC", "assay": "Immunosuppressive activity against anti-CD3/anti-CD28 stimulated human PBMCs assessed as reduction of IL-10 secretion at 0.625 to 2.5 uM", "type": "functional, tissue-based", "details": "dose 0.625-2.5 µM"}, "[18]": {"system": "Mus musculus", "assay": "Hepatoprotective activity against ConA-induced hepatitis in C57BL/6J mouse assessed as effect on FAS expression at 10 mg/kg, ip administered for 2 days by TUNEL staining based assay", "type": "functional, organism-based", "details": "time 2.0 day"}, "[19]": {"system": "PBMC", "assay": "Immunosuppressive activity against anti-CD3/anti-CD28 stimulated human PBMCs assessed as reduction of IL-6 secretion at 0.625 to 2.5 uM", "type": "functional, tissue-based", "details": "dose 0.625-2.5 µM"}, "[20]": {"system": "Splenocyte", "assay": "Inhibition of ConA-stimulated IL-2 production in C57BL/6J mouse splenocytes at 0.156 to 1.25 uM", "type": "functional, cell-based", "details": "dose 0.156-1.25 µM"}, "[21]": {"system": "Mus musculus", "assay": "Hepatoprotective activity against ConA-induced hepatitis in C57BL/6J mouse assessed as effect on BCL2 expression at 10 mg/kg, ip administered for 2 days by TUNEL staining based assay", "type": "functional, organism-based", "details": "time 2.0 day"}, "[22]": {"assay": "Immunosuppressive activity in human PBMCs assessed as inhibition of anti-CD3/anti-CD28 induced T-cell proliferation at 0.3125 uM for 72 hrs by CellTrace Violet staining based flow cytometric analysis (reference value: 63.3 %)", "type": "functional, PBMC", "parameters": "scale not given: the % may be the effect or the level left"}, "[23]": {"system": "Splenocyte", "assay": "Immunosuppressive activity in C57BL/6J mouse splenocytes assessed as inhibition of anti-CD3/anti-CD28 induced T-cell proliferation at 0.3125 uM for 72 hrs by CellTrace Violet staining based flow cytometric analysis (reference value: 78.4 %)", "type": "functional", "parameters": "scale not given: the % may be the effect or the level left"}, "[24]": {"system": "Splenocyte", "assay": "Immunosuppressive activity against anti-CD3/anti-CD28 stimulated C57BL/6J mouse splenocytes assessed as reduction of IL-4 secretion at 0.625 to 2.5 uM", "type": "functional, cell-based", "details": "dose 0.625-2.5 µM"}, "[25]": {"assay": "Immunosuppressive activity in human PBMCs assessed as inhibition of anti-CD3/anti-CD28 induced T-cell proliferation at 2.5 uM for 72 hrs by CellTrace Violet staining based flow cytometric analysis (reference value: 63.3 %)", "type": "functional, PBMC", "parameters": "scale not given: the % may be the effect or the level left"}, "[26]": {"system": "Splenocyte", "assay": "Inhibition of ConA-stimulated IL-6 production in C57BL/6J mouse splenocytes at 0.156 to 1.25 uM", "type": "functional, cell-based", "details": "dose 0.156-1.25 µM"}, "[27]": {"system": "Splenocyte", "assay": "Immunosuppressive activity against anti-CD3/anti-CD28 stimulated C57BL/6J mouse splenocytes assessed as reduction of IFN-gamma secretion at 0.625 to 2.5 uM", "type": "functional, cell-based", "details": "dose 0.625-2.5 µM"}, "[28]": {"system": "Splenocyte", "assay": "Immunosuppressive activity against anti-CD3/anti-CD28 stimulated C57BL/6J mouse splenocytes assessed as reduction of IL-17 secretion at 0.625 to 2.5 uM", "type": "functional, cell-based", "details": "dose 0.625-2.5 µM"}, "[29]": {"system": "Splenocyte", "assay": "Immunosuppressive activity in C57BL/6J mouse splenocytes assessed as inhibition of ConA-induced splenocytes proliferation at 0.625 uM measured after 72 hrs by CellTrace Violet staining based flow cytometric analysis (reference value: 63.9 %)", "type": "functional", "parameters": "scale not given: the % may be the effect or the level left"}, "[30]": {"system": "Splenocyte", "assay": "Immunosuppressive activity in C57BL/6J mouse splenocytes assessed as inhibition of anti-CD3/anti-CD28 induced T-cell proliferation at 2.5 uM for 72 hrs by CellTrace Violet staining based flow cytometric analysis (reference value: 78.4 %)", "type": "functional", "parameters": "scale not given: the % may be the effect or the level left"}, "[31]": {"system": "Splenocyte", "assay": "Immunosuppressive activity against anti-CD3/anti-CD28 stimulated C57BL/6J mouse splenocytes assessed as reduction of IL-6 secretion at 0.625 to 2.5 uM", "type": "functional, cell-based", "details": "dose 0.625-2.5 µM"}, "[32]": {"system": "Splenocyte", "assay": "Immunosuppressive activity in C57BL/6J mouse splenocytes assessed as inhibition of ConA-induced splenocytes proliferation at 0.3125 uM measured after 72 hrs by CellTrace Violet staining based flow cytometric analysis (reference value: 63.9 %)", "type": "functional", "parameters": "scale not given: the % may be the effect or the level left"}, "[33]": {"system": "PBMC", "assay": "Immunosuppressive activity against anti-CD3/anti-CD28 stimulated human PBMCs assessed as reduction of IFN-gamma secretion at 0.625 to 2.5 uM", "type": "functional, tissue-based", "details": "dose 0.625-2.5 µM"}, "[34]": {"system": "Splenocyte", "assay": "Immunosuppressive activity in C57BL/6J mouse splenocytes assessed as inhibition of anti-CD3/anti-CD28 induced T-cell proliferation at 1.25 uM for 72 hrs by CellTrace Violet staining based flow cytometric analysis (reference value: 78.4 %)", "type": "functional", "parameters": "scale not given: the % may be the effect or the level left"}},
  "note": "The source made the active and inactive calls. The rule behind the calls is not given here.",
  "data": [
    {"compound": "COC1=C(C(C)C)C(=O)[C@]23O[C@@]2(C1=O)[C@@]1(C)CC[C@H](O)C(C)(C)[C@@H]1CC3=O", "values": [
      {"measurement": "inhibition", "setting": "[1]", "value": "Active"},
      {"measurement": "Activity", "setting": "[2]", "value": 24.9, "unit": "%"},
      {"measurement": "Activity", "setting": "[3]", "value": 68.8, "unit": "%"},
      {"measurement": "Activity", "setting": "[4]", "value": "Active"},
      {"measurement": "Activity", "setting": "[5]", "value": "Active"},
      {"measurement": "Activity", "setting": "[6]", "value": 56.4, "unit": "%"},
      {"measurement": "Activity", "setting": "[7]", "value": "Active"},
      {"measurement": "Activity", "setting": "[8]", "value": "Non-Toxic"},
      {"measurement": "inhibition", "setting": "[9]", "value": "Active"},
      {"measurement": "Activity", "setting": "[10]", "value": 51.1, "unit": "%"},
      {"measurement": "Activity", "setting": "[11]", "value": "Active"},
      {"measurement": "Activity", "setting": "[12]", "value": "inactive"},
      {"measurement": "Activity", "setting": "[13]", "value": "Active"},
      {"measurement": "Activity", "setting": "[14]", "value": "Active"},
      {"measurement": "Activity", "setting": "[15]", "value": "Active"},
      {"measurement": "Activity", "setting": "[16]", "value": 10.8, "unit": "%"},
      {"measurement": "Activity", "setting": "[17]", "value": "Active"},
      {"measurement": "Activity", "setting": "[18]", "value": "inactive"},
      {"measurement": "Activity", "setting": "[19]", "value": "Active"},
      {"measurement": "inhibition", "setting": "[20]", "value": "Active"},
      {"measurement": "Activity", "setting": "[21]", "value": "inactive"},
      {"measurement": "Activity", "setting": "[22]", "value": 61.3, "unit": "%"},
      {"measurement": "Activity", "setting": "[23]", "value": 70.2, "unit": "%"},
      {"measurement": "Activity", "setting": "[24]", "value": "Active"},
      {"measurement": "Activity", "setting": "[25]", "value": 8.24, "unit": "%"},
      {"measurement": "inhibition", "setting": "[26]", "value": "Active"},
      {"measurement": "Activity", "setting": "[27]", "value": "Active"},
      {"measurement": "Activity", "setting": "[28]", "value": "Active"},
      {"measurement": "Activity", "setting": "[29]", "value": 29.9, "unit": "%"},
      {"measurement": "Activity", "setting": "[30]", "value": 5.48, "unit": "%"},
      {"measurement": "Activity", "setting": "[31]", "value": "Active"},
      {"measurement": "Activity", "setting": "[32]", "value": 42.2, "unit": "%"},
      {"measurement": "Activity", "setting": "[33]", "value": "Active"},
      {"measurement": "Activity", "setting": "[34]", "value": 7.39, "unit": "%"}
    ]}
  ]
}
